Measured values: patent publication US20240254119A1 (THIRD HARMONIC BIO, INC., priority 2022, published 2024)
Converted amounts (≈) assume the structure as drawn.

Columns and labels:
PDGFRα = target: T1, PDGFRα (Homo sapiens, UniProt P16234); assay: Caliper biochemical assay, PDGFRα; conditions: Table 6
T1 construct: purchased Millipore 14-467 (lot 26321_ACTI)
Procedure, shortened: (§1)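 Kinase, FAM-labelled peptide substrate, ATP and Mn^2+ incubated with compound for 3 h at 25° C, then quenched with EDTA buffer. Substrate and phosphorylated product separated by microfluidic electrophoresis and quantified by fluorescence intensity; no-enzyme wells define 100% inhibition.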

CSF-1R = target: T2, CSF-1R (Homo sapiens, UniProt P07333); assay: Caliper biochemical assay, CSF-1R; conditions: Table 6
T2 construct: purchased Invitrogen PV3249 (lot 662393N)
T2 sequence (P07333 20-972): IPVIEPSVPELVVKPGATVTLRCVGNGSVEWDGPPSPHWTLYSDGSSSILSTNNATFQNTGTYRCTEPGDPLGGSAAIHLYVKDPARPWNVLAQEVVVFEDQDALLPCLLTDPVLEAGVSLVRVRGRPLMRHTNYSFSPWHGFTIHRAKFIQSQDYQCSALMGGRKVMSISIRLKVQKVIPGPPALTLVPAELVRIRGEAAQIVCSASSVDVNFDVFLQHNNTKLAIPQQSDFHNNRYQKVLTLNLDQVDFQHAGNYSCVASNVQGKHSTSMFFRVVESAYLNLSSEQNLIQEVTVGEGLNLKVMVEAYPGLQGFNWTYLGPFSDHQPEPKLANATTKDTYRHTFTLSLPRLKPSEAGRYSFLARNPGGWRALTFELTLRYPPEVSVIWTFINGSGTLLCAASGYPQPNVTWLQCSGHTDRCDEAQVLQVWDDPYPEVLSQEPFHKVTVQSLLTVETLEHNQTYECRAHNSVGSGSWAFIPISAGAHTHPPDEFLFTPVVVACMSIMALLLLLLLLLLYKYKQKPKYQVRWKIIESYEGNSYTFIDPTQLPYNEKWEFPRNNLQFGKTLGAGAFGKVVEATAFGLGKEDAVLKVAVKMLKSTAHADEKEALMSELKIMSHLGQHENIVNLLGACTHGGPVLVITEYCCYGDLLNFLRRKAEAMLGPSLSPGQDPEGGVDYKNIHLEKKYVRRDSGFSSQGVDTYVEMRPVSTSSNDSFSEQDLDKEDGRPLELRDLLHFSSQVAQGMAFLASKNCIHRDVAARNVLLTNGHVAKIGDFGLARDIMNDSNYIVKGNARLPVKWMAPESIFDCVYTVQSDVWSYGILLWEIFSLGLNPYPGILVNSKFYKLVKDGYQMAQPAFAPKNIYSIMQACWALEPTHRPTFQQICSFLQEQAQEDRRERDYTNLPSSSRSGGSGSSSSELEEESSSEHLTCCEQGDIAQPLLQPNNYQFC
Procedure, shortened: as §1

wtKIT = target: T3, wtKIT (Homo sapiens, UniProt P10721); assay: Caliper biochemical assay, wtKIT; conditions: Table 6, read-out: KIT Biochemical IC50 avg
T3 construct: 1888289AM in the reaction mixtures
T3 sequence (P10721 26-976): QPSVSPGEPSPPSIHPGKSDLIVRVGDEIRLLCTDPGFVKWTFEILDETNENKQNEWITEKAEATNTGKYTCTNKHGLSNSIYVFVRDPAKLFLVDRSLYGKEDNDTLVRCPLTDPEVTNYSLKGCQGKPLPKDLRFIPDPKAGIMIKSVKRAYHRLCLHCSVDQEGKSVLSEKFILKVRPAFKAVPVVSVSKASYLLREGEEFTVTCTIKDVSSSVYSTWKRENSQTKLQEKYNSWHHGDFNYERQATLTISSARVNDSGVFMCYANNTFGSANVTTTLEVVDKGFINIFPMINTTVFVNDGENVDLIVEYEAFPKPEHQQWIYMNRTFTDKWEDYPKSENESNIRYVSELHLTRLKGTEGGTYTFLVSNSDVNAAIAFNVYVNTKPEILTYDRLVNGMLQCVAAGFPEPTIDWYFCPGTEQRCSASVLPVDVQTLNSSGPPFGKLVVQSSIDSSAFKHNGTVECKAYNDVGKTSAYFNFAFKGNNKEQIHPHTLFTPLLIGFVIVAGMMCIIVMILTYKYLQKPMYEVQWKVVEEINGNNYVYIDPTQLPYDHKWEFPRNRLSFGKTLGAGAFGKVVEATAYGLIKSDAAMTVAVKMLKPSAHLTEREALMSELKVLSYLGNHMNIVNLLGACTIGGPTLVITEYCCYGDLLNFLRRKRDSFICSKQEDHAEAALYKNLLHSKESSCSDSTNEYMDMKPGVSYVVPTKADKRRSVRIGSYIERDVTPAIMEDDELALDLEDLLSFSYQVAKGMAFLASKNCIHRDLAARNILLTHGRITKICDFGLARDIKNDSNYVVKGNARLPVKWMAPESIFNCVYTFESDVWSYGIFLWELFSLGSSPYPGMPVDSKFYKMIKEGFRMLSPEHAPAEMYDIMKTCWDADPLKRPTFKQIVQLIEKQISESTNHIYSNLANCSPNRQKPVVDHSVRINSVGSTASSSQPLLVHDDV
Procedure, shortened: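 Enzyme (5.0 nM wtKIT), 1 μM FAM-labelled peptide, 400 μM ATP and 10 mM MnCl2 in HEPES pH 7.5 with 1% DMSO, incubated 3 h at 25° C. EDTA quench; substrate and phosphoproduct separated by microfluidic electrophoresis and quantified by fluorescence.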

Kinetic solubility assay = type: physicochemical; conditions: for Solubility (μM): kinetic solubility, 50 mM PB (pH 7.4), shaken 24 hours at RT
Procedure, shortened: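 Test compounds from 10 mM DMSO stock were diluted in 50 mM phosphate buffer, pH 7.4, and shaken for 24 h at RT. After PTFE filtration and centrifugation, filtrate concentration was quantified by UPLC-UV/HPLC-UV against a standard curve.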

[1] = target: T4, BCRP (BCRP-MDCKII monolayer) (Homo sapiens, UniProt Q9UNQ0); assay: MDCKII-BCRP bidirectional transport assay; type: in vitro ADME; conditions: for MDCK-BCRP: Papp A-B: apical to basolateral
T4 construct: host or cells: MDCKII (canine kidney) cells
T4 sequence (Q9UNQ0 1-655): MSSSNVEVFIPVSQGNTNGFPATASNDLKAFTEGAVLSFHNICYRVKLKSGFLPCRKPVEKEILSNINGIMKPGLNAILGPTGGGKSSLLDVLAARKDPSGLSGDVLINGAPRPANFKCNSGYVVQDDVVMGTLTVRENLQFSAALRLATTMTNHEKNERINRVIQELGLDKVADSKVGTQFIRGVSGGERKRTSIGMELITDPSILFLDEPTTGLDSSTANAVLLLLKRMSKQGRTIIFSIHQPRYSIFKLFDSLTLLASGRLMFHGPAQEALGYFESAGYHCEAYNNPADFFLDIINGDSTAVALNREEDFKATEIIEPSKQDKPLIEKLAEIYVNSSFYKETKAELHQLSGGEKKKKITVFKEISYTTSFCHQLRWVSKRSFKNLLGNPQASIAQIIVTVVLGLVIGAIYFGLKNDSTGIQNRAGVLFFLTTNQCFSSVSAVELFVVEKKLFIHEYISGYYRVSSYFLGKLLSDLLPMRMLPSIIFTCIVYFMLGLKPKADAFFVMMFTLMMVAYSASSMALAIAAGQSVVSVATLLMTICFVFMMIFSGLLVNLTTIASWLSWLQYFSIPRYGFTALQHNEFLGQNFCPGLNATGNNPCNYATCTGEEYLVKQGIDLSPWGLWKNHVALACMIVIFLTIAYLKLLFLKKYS
Procedure, shortened: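 Bidirectional A→B and B→A transport across PreadyPort BCRP-MDCKII monolayers (days 12–15) was run in duplicate for 120 min at 37° C, 5% CO2 after a 15 min preincubation. Compound levels were measured by LC-MS/MS. Papp and recovery were calculated, with efflux ratio indicating transporter engagement.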

T1 sequence (P16234 24-1089): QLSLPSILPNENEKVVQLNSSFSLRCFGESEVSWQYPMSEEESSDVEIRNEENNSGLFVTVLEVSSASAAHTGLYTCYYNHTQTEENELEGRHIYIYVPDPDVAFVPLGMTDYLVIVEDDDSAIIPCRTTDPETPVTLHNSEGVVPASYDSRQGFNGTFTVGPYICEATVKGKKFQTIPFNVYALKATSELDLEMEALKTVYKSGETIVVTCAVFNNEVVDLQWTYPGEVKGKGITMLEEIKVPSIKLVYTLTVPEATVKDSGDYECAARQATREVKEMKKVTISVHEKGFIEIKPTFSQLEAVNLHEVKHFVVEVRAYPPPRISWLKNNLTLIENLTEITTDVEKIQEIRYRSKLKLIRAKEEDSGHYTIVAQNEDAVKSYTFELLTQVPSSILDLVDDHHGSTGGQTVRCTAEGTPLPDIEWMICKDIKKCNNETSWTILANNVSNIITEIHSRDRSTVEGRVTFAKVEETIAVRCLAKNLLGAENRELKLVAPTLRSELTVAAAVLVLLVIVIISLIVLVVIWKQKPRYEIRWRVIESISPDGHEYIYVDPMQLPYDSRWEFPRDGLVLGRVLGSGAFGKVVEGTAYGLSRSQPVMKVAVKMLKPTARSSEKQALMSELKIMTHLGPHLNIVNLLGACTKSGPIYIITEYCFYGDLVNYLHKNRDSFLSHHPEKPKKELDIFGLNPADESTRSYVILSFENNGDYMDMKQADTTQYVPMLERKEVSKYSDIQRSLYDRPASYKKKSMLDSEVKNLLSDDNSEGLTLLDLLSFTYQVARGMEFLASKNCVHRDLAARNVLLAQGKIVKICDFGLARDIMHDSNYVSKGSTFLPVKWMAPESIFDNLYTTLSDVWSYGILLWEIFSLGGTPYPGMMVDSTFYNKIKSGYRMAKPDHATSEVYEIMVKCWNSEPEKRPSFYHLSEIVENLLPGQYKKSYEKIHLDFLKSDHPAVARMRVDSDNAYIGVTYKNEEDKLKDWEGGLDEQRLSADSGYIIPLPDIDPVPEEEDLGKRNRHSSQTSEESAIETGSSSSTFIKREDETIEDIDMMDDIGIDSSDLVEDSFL

| SMILES | IC50 (PDGFRα) [nM] | IC50 (CSF-1R) [nM] | IC50 (wtKIT) [nM] | solubility at 24 h (Kinetic solubility assay; phosphate buffer, pH 7.4, aqueous buffer, kinetic from dmso stock) [µM] | MDCK-BCRP: Efflux Ratio [1] | MDCK-BCRP: Papp A-B [1] | Solubility (μM) (Kinetic solubility assay) |
| --- | --- | --- | --- | --- | --- | --- | --- |
| Cc1ccc(-c2noc([C@H]3C[C@@H]3F)n2)cc1NC(=O)c1cnc2cc(COCC(C)(C)O)ccn12 [Compound I-71, N-[5-[5-[(1R,2S)-2-fluorocyclopropyl]-1,2,4-oxadiazol-3-yl]-2-methyl-phenyl]-7-[(2-hydroxy-2-methyl-propoxy)methyl]imidazo[1,2-a]pyridine-3-carboxamide] | 500 to 5000 | ≤ 50 | ≤ 50 | 10 to 50 (≈ 4.8 to 24 µg/mL) | – | – | – |
| COC(=O)N1CC(c2nc(-c3ccc(C)c(NC(=O)c4cnn5ccc(Br)cc45)c3)no2)C1 [Compound I-280] | 5000 to 30000 | ≤ 50 | ≤ 50 | – | 2.55 | 5.07 10^−6 cm/s | **** (a solubility less than or equal to 2 μM) |
| Cc1ccc(-c2noc(C(C)O)n2)cc1NC(=O)c1cnc2ccccn12 (racemic) [Compound I-364] | 5000 to 30000 | ≤ 50 | 50 to 500 | – | 9.18 | 2.19 10^−6 cm/s | * (a solubility greater than 50 μM) |
| Cc1ccc(-c2noc(C3CCC(F)C3)n2)cc1NC(=O)c1cnc2ccccn12 (racemic) [Compound I-319] | 50 to 500 | ≤ 50 | ≤ 50 | – | 1.02 | 13.1 10^−6 cm/s | *** (a solubility greater than 2 μM and less than or equal to 10 μM) |
| Cc1ccc(-c2noc(CC3CC(F)(F)C3)n2)cc1NC(=O)c1cnc2ccccn12 [Compound I-124] | 50 to 500 | ≤ 50 | ≤ 50 | – | 1.14 | 9.07 10^−6 cm/s | **** (a solubility less than or equal to 2 μM) |
| Cc1ccc(-c2noc([C@H]3C[C@@H]3F)n2)cc1NC(=O)c1cnc2cc(N3CCC3)ccn12 [Compound I-295] | ≤ 50 | ≤ 50 | ≤ 50 | – | 1.58 | 6.12 10^−6 cm/s | **** (a solubility less than or equal to 2 μM) |
| Cc1ccc(-c2noc(C3CC(F)C3)n2)cc1NC(=O)c1cnc2ccccn12 (stereo not shown) [Compound I-381] | 50 to 500 | ≤ 50 | ≤ 50 | – | 1.25 | 10.1 10^−6 cm/s | **** (a solubility less than or equal to 2 μM) |
| COc1ccn2c(C(=O)Nc3cc(-c4noc(C5CC(F)(F)C5)n4)ccc3C)cnc2c1 [Compound I-96] | – | – | – | – | 1.44 | 8.58 10^−6 cm/s | **** (a solubility less than or equal to 2 μM) |
| Cc1ccc(-c2noc([C@H](C)O)n2)cc1NC(=O)c1cnc2ccccn12 [Compound I-271] | 500 to 5000 | 50 to 500 | ≤ 50 | – | 29.6 | 1.25 10^−6 cm/s | * (a solubility greater than 50 μM) |
| Cc1nc(-c2ccc(Cl)c(NC(=O)c3cnc4ccccn34)c2)no1 [Compound I-172] | 500 to 5000 | 50 to 500 | ≤ 50 | – | 0.81 | 6.02 10^−6 cm/s | **** (a solubility less than or equal to 2 μM) |
| Cc1ccc(-c2noc(CC(C)(C)O)n2)cc1NC(=O)c1cnc2ccccn12 [Compound I-336] | – | – | 50 to 500 | – | 19.9 | 1.92 10^−6 cm/s | * (a solubility greater than 50 μM) |
| Cc1ccc(-c2noc(CC(O)C(F)F)n2)cc1NC(=O)c1cnc2ccccn12 (stereo not shown) [Compound I-122] | – | – | – | – | 29.4 | 1.63 10^−6 cm/s | **** (a solubility less than or equal to 2 μM) |
| COc1ccn2c(C(=O)Nc3cc(-c4noc(CC5CC(F)(F)C5)n4)ccc3C)cnc2c1 [Compound I-91] | – | – | – | – | 1.76 | 1.11 10^−6 cm/s | **** (a solubility less than or equal to 2 μM) |
| Cc1ccc(-c2noc([C@H]3C[C@@H]3F)n2)cc1NC(=O)c1cnn2ccccc12 [Compound I-109] | – | – | – | – | 1.12 | 88.7 10^−6 cm/s | **** (a solubility less than or equal to 2 μM) |
| COc1ccc2ncc(C(=O)Nc3cc(-c4noc(C[C@@H](C)O)n4)ccc3C)n2c1 [Compound I-119] | – | – | – | – | – | – | **** (a solubility less than or equal to 2 μM) |
| COc1ccn2c(C(=O)Nc3cc(-c4noc(CC(O)C(F)F)n4)ccc3C)cnc2c1 (single isomer, unassigned) [Compound I-76] | – | – | – | – | – | – | **** (a solubility less than or equal to 2 μM) |
| COCCOCc1ccn2c(C(=O)Nc3cc(-c4noc([C@H]5C[C@@H]5F)n4)ccc3C)cnc2c1 [Compound I-84] | – | – | – | – | 2.28 | 20.7 10^−6 cm/s | ** (a solubility greater than 10 μM and less than or equal to 50 μM) |
| COc1ccn2c(C(=O)Nc3cc(-c4noc(C[C@H](C)O)n4)ccc3C)cnc2c1 [Compound I-94] | – | – | – | – | 8.04 | 5.19 10^−6 cm/s | **** (a solubility less than or equal to 2 μM) |
| CCOc1ccn2c(C(=O)Nc3cc(-c4noc([C@H]5C[C@@H]5F)n4)ccc3C)cnc2c1 [Compound I-93] | – | – | – | – | 1.16 | 21 10^−6 cm/s | **** (a solubility less than or equal to 2 μM) |
| Cc1ccc(-c2noc([C@H]3C[C@@H]3F)n2)cc1NC(=O)c1cnc2cc(OC(F)(F)F)ccn12 [Compound I-87] | – | – | – | – | 0.71 | 30.4 10^−6 cm/s | **** (a solubility less than or equal to 2 μM) |
| Cc1ccc(-c2noc(C3CCS(=O)(=O)C3)n2)cc1NC(=O)c1cnc2ccccn12 (racemic) [Compound I-389] | – | – | 50 to 500 | – | 54.3 | 0.87 10^−6 cm/s | ** (a solubility greater than 10 μM and less than or equal to 50 μM) |
| Cc1ccc(-c2noc(C3(O)CC(F)(F)C3)n2)cc1NC(=O)c1cnc2ccccn12 [Compound I-380] | – | – | ≤ 50 | – | 14.2 | 1.21 10^−6 cm/s | **** (a solubility less than or equal to 2 μM) |
| Cc1ccc(-c2cnc(N3CC(F)(F)C3)o2)cc1NC(=O)c1cnc2ccccn12 [Compound I-213] | – | – | ≤ 50 | – | 1.42 | 20.6 10^−6 cm/s | **** (a solubility less than or equal to 2 μM) |
